Drawing on ChEMBL document CHEMBL1201862, “PubChem BioAssay data set” (2004), this text covers IC50, CC50 and EC50 for seven compounds.

For one assay, the target named is Genome polyprotein (dengue virus type 2, UniProt P29990). Description: Dengue-2 NS5 methyltransferase inhibitors, primary screen, biochemical, confirmation dose response (AID 588689). The assay is classed as functional.
Assay [1] addresses T1, Sentrin-specific protease 8 (Homo sapiens, UniProt Q96LD8).
T1 sequence (Q96LD8 whole entry): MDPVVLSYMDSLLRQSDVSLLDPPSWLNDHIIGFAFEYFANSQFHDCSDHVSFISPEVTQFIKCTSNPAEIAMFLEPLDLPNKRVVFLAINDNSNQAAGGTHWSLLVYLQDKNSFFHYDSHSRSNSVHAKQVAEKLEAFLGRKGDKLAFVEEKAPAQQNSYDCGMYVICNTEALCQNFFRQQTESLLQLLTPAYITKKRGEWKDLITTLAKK
The assay is classed as functional.

The target of a further assay is T2, Bcl-2-like protein 10 (Homo sapiens, UniProt Q9HD36).
T2 sequence (Q9HD36 whole entry): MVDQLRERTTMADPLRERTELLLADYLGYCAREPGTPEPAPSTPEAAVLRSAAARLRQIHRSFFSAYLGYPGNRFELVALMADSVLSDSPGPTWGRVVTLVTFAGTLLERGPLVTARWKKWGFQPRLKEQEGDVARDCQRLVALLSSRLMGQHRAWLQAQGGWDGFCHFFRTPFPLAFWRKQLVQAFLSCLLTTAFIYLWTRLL
Kind of assay: displacers of TR3 peptide from Bcl-B, primary screen, selectivity assay for Bfl-1 inhibitor project, biochemical, fluorescence polarization, FITC-TR3 peptide (AID 748).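 Further: fluorescence polarization from a fluorescein-labelled TR3 peptide binding purified Bcl-B.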 For orientation: Polarisation of emitted light reports the rotation of a fluorescent probe.

Assay [2] concerns the target T3, Estrogen receptor beta (Homo sapiens, UniProt Q92731).
Another assay relates to Vero. Kind of assay: Vero cell cytotoxicity, cytotoxicity control for flavivirus capping enzyme inhibitors (AID 588742). To be noted: Chlorocebus sabaeus. The assay is classed as functional.
The target of assay [3] is T4, Sentrin-specific protease 7 (Homo sapiens, UniProt Q9BQF6).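 Further: Luminescence-based dose-response confirmation of ultra-high-throughput screening hits, measuring inhibition of SENP7.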
T4 sequence (Q9BQF6 whole entry): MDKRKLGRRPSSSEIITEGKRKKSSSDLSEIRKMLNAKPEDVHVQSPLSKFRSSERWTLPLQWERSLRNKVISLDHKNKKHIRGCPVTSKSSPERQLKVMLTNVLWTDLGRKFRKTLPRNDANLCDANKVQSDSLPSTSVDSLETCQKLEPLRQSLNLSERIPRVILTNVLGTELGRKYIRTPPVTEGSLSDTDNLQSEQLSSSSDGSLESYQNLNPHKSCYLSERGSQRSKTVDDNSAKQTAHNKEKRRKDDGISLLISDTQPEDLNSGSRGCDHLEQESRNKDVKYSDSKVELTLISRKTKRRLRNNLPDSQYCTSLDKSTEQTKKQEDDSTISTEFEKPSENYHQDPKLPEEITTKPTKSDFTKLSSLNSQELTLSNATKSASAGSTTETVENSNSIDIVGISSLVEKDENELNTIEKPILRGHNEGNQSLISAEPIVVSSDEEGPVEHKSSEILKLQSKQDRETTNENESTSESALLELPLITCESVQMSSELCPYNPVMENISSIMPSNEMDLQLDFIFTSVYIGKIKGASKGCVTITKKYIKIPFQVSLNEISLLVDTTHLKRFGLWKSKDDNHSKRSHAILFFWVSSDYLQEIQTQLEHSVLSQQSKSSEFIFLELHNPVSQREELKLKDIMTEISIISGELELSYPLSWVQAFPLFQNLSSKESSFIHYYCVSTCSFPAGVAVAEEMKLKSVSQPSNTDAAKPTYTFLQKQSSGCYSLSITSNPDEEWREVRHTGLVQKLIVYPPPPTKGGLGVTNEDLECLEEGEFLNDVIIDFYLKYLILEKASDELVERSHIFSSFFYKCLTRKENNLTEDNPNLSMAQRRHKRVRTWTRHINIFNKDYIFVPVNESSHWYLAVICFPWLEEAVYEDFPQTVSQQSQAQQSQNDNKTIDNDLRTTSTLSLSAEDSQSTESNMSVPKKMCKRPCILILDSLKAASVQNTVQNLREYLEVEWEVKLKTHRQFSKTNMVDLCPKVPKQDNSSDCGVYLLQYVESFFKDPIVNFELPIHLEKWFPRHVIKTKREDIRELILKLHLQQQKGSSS
The format is functional.

Assay [4] in a line: THP-1 cell cytotoxicity, dose response, cytotoxicity control for Vif-APOBEC3G degradation inhibitor project, THP-1 cells (AID 1117359). The format is functional. The conditions noted are these: Human immunodeficiency virus 1, THP-1.
In the next assay the target is T5, Caspase-3 (Homo sapiens, UniProt P42574).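 Further: Dose-response selectivity test against caspase-3 for candidate inhibitors of sentrin-specific proteases (SENPs).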
T5 sequence (P42574 whole entry): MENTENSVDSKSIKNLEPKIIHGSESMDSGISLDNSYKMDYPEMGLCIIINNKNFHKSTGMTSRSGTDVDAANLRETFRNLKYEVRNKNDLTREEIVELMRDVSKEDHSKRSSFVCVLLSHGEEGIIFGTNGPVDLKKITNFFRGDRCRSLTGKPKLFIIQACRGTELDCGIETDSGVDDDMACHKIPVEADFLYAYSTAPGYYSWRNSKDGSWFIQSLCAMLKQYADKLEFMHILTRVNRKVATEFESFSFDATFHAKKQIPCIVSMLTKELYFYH
The format is functional.

Assay [5] concerns the target Glutathione-S-transferase (Schistosoma japonicum, UniProt Q26513). Description: biotin-GST/anti-GST TR-FRET signal inhibitors, dose response, artefact control for Vif-APOBEC3G degradation inhibitor project, biochemical (AID 1117362). The assay is classed as functional. In general terms: TR-FRET usually uses a lanthanide donor and a delayed reading to cut background.

For assay [6], the target named is T3, Estrogen receptor beta. Kind of assay: ERβ–SRC-3 coactivator interaction inhibitors, confirmation, orthogonal assay, biochemical, ELISA, streptavidin-HRP readout (AID 1060). (In general: ELISA stands for enzyme-linked immunosorbent assay.)
Assay [7] concerns the target T6, Sentrin-specific protease 6 (Homo sapiens, UniProt Q9GZR1).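 Further: Luminescence-based dose-response confirmatory assay of SENP6 inhibition, following up an ultra-high-throughput screen.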
T6 sequence (Q9GZR1 whole entry): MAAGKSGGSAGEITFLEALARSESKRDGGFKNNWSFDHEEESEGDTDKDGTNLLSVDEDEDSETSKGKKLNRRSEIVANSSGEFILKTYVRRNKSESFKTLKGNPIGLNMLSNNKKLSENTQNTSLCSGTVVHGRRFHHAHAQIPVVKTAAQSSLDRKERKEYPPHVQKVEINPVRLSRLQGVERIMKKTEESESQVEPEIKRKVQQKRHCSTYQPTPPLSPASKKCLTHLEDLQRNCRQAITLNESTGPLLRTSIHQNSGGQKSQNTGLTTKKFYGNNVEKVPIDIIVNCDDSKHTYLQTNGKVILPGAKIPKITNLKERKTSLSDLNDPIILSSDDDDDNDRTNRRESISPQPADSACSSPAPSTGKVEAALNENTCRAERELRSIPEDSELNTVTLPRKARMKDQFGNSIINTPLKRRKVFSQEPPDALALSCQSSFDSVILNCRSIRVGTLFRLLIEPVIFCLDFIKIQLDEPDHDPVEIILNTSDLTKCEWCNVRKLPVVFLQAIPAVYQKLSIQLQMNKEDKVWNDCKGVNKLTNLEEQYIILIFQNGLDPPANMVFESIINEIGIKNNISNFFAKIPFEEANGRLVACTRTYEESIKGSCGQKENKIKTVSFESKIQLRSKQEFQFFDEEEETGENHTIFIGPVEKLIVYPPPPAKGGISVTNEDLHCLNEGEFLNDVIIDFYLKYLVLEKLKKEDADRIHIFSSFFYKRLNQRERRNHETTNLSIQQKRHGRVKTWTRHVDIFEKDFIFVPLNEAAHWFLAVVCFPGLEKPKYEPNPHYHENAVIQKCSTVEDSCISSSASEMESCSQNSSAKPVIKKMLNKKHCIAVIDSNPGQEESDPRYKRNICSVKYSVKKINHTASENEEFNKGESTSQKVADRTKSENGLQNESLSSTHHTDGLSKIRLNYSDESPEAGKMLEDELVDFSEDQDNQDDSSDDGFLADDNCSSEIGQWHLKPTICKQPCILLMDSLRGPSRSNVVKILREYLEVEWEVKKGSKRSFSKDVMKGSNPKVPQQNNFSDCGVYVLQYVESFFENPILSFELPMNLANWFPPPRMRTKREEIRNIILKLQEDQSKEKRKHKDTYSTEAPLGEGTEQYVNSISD
The format is functional.

The nature of assay [8]: C. albicans growth with fluconazole, confirmation, fluorescence, retest (AID 2467). The assay is classed as functional, cell-based.
In assay [9] the target is Sphingosine 1-phosphate receptor 1 (Homo sapiens, UniProt P21453). The assay is classed as functional.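 Further: Tango beta-arrestin reporter U2OS cells stimulated with S1P near its EC80; inhibitor potency meaning antagonism of receptor activation by the natural agonist.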
Sphingosine 1-phosphate receptor 1, sequence (P21453 whole entry): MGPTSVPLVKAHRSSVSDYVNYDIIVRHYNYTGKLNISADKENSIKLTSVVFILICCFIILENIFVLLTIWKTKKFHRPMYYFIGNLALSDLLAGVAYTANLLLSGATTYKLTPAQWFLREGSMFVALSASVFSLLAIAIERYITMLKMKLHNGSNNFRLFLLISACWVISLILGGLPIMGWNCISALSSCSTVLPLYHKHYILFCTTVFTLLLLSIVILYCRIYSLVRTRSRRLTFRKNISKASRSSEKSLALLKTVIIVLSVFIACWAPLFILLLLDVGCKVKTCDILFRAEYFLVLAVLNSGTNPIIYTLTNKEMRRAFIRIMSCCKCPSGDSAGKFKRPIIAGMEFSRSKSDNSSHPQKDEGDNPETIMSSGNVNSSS
Assay [10] has as its target Sphingosine 1-phosphate receptor 4 (Homo sapiens, UniProt O95977). Kind of assay: Fluorescence dose response cell-based high throughput screening assay for antagonists of the Sphingosine 1-Phosphate Receptor 4 (S1P4). [Related pubchem assays: 1524 (Confirmation in triplicates.), 1510 (Primary screen.)]. The assay is classed as functional.
Assay [11] is described as follows: inhibitors of intracellular T. cruzi replication, confirmation, NIH3T3 host cells, beta-gal luminescence (AID 2044).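 Further: intracellular parasites grown in NIH/3T3 mouse fibroblasts as host cells; luminescent beta-galactosidase reporter signal from transgenic T. cruzi replicating inside host cells; inhibitors lower the luminescence signal.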 The assay is classed as functional, cell-based.
A short description of assay [12]: cytotoxicity in KRAS-transformed pancreatic duct cells, primary screen, cell-based, fluorescence, HTS (AID 431).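 Further: cell line used: HPDE-C7K.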 The format is functional. To be noted: Homo sapiens.
Assay [13] can be described thus: cytotoxicity in HPDE-C7 cells, cell-based, fluorescence, HTS (AID 430). The assay is classed as functional. To be noted: Homo sapiens.
Assay [14] can be described thus: NIH-3T3 fibroblast cytotoxicity, dose response, cytotoxicity control, cell-based, fluorescence, Alamar Blue, secondary assay (AID 2327).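 Further: NIH-3T3 mouse fibroblasts cultured with fluconazole at 8 µg/mL.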 The assay is classed as functional.
Assay [15] can be described thus: cytotoxicity toward NIH3T3 fibroblasts, dose response, counter-screen, cell-based, ATP luminescence, mouse fibroblasts (AID 2010).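 Further: cells exposed to compound for about 90 hours before reading.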 The format is functional.
Assay [16] deals with Neuropeptide Y receptor type 1 (Homo sapiens, UniProt P25929). The format is functional.
Neuropeptide Y receptor type 1, sequence (P25929 whole entry): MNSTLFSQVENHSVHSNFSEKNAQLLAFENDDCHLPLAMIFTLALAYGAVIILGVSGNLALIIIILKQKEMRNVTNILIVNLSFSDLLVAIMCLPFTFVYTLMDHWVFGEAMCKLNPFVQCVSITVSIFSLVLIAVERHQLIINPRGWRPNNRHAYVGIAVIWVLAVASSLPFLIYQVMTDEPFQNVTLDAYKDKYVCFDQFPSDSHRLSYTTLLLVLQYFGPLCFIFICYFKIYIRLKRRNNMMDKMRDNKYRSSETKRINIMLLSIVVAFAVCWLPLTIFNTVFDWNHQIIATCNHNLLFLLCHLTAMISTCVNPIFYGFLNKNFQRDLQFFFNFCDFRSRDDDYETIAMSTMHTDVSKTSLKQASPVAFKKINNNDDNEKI
Assay [17] concerns the target Neuropeptide Y receptor type 2 (Homo sapiens, UniProt P49146). The format is functional, cell-based.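 Further: HEK293 cells expressing the receptor and a CNG channel; stimulus was NPY near EC95 followed by isoproterenol to raise cAMP; antagonist potency measured as restoring cAMP signal that NPY suppresses.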
For assay [18], the target named is Sphingosine 1-phosphate receptor 3 (Homo sapiens, UniProt Q99500). Description: Dose response cell-based high throughput screening assay for antagonists of the Sphingosine 1-Phosphate Receptor 3 (S1P3). [Related pubchem assays: 1429, 485 ]. The assay is classed as functional.
Sphingosine 1-phosphate receptor 3, sequence (Q99500 whole entry): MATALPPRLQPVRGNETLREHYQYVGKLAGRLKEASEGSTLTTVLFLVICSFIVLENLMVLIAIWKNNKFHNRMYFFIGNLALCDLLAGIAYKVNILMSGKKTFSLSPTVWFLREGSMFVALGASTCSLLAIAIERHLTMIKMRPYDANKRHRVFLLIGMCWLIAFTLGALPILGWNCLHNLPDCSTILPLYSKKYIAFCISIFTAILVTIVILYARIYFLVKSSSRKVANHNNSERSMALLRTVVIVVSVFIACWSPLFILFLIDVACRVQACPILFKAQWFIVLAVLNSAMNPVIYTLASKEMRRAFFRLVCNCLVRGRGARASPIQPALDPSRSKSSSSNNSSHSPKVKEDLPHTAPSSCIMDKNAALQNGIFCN
For assay [19], the target named is 5-hydroxytryptamine receptor 1E (Homo sapiens, UniProt P28566). Kind of assay: Counterscreen assay for S1P3 antagonists: Dose response cell-based high throughput screening assay to identify antagonists of the 5-Hydroxytryptamine Receptor Subtype 1E (5HT1E). [Related pubchem assays: 1429, 485 ]. The format is functional.
5-hydroxytryptamine receptor 1E, sequence (P28566 whole entry): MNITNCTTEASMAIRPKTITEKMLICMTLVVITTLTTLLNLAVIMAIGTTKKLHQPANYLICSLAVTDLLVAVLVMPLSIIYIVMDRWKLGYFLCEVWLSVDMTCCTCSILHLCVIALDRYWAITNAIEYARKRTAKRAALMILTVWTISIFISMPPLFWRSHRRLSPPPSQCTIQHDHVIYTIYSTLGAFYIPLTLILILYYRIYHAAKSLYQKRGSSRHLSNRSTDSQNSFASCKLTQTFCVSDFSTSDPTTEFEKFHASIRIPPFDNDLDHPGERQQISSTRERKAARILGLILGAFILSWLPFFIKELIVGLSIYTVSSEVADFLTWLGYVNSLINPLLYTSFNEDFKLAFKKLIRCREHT
The target of the next assay is T7, Estrogen receptor (Homo sapiens, UniProt P03372).
T7 sequence (P03372 whole entry): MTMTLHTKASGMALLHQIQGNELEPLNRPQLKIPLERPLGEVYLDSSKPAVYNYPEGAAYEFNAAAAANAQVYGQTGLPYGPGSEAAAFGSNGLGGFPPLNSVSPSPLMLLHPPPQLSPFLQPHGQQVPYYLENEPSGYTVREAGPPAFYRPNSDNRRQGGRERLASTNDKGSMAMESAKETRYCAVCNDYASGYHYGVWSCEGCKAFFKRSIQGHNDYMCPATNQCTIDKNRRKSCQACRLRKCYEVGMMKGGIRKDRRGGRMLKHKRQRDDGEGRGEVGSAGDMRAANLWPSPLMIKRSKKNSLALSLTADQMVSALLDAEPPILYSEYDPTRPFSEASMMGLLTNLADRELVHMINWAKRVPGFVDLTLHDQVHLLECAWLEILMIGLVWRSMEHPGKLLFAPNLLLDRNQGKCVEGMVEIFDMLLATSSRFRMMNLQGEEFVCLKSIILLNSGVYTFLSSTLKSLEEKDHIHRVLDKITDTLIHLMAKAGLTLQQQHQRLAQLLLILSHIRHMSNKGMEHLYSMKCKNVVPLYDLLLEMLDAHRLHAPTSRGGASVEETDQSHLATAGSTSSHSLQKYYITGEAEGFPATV
Description: potentiators of ERα–SRC-1 coactivator binding, dose response, biochemical, TR-FRET, ERα LBD (AID 737).

Assay [20] addresses Sphingosine 1-phosphate receptor 2 (Homo sapiens, UniProt O95136). Description: Dose Response Cell Based Assay for Agonists of the S1P2 Receptor of Purchased Analogues. [Related pubchem assays: 729, 843, 854, 736 ]. The assay is classed as functional.
The nature of assay [21]: inhibitors of Bluetongue virus cytopathic effect, confirmation, arbovirus, BSR cells (AID 1250).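 Further: protection from viral cytopathic effect measured as cell viability by ATP luminescence.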 The assay is classed as functional.

Each structure is given as a SMILES string. The source made the active and inactive calls.

T3 sequence (Q92731 whole entry): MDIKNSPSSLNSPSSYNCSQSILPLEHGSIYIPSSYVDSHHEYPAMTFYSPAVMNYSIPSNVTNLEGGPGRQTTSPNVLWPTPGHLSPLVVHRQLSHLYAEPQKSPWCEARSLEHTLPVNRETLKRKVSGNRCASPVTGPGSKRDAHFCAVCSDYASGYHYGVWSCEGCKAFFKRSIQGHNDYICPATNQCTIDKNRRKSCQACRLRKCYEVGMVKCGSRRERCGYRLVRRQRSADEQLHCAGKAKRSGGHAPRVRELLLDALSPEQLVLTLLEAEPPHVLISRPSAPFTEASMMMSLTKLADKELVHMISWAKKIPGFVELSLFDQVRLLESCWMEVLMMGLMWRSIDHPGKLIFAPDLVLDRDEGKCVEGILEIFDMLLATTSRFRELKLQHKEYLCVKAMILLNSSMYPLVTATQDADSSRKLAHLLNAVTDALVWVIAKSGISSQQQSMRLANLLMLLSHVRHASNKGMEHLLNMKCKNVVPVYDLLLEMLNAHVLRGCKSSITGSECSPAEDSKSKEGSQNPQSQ
Sphingosine 1-phosphate receptor 4, sequence (O95977 whole entry): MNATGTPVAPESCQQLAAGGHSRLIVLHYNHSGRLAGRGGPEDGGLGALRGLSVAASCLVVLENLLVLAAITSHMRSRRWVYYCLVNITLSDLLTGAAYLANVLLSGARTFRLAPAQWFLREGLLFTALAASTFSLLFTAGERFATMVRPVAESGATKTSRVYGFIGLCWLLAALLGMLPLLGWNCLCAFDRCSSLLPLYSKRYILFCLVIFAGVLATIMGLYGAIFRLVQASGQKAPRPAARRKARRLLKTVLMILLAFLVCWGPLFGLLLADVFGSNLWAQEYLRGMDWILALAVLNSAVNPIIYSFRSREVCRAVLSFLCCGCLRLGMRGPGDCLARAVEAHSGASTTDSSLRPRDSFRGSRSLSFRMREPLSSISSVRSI
Neuropeptide Y receptor type 2, sequence (P49146 whole entry): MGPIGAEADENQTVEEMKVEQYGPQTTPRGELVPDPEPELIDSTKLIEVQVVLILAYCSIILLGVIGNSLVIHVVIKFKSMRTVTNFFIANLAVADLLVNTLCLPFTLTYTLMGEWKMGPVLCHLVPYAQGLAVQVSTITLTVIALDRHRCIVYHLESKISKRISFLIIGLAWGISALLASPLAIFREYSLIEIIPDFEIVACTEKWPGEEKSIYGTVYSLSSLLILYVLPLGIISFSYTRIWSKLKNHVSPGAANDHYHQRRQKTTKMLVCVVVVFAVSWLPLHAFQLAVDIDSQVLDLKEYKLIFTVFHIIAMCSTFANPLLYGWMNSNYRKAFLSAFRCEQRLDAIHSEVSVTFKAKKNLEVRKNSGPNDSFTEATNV
Glutathione-S-transferase, sequence (Q26513 whole entry): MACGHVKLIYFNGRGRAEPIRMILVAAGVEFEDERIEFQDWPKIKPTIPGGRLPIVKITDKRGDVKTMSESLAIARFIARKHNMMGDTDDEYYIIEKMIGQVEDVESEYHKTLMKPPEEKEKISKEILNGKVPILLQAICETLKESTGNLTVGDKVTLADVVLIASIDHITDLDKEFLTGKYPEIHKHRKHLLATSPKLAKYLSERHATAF
Sphingosine 1-phosphate receptor 2, sequence (O95136 whole entry): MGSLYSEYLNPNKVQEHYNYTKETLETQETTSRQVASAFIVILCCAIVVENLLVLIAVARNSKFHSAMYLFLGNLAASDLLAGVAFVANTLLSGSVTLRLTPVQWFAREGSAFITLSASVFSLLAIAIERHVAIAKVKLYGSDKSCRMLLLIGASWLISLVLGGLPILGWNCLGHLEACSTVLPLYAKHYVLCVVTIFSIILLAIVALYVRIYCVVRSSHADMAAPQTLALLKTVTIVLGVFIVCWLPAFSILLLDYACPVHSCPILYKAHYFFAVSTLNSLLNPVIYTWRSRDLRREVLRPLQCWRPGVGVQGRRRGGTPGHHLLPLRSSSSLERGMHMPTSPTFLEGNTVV
Genome polyprotein, sequence (P29990 2492-3391 limits assumed): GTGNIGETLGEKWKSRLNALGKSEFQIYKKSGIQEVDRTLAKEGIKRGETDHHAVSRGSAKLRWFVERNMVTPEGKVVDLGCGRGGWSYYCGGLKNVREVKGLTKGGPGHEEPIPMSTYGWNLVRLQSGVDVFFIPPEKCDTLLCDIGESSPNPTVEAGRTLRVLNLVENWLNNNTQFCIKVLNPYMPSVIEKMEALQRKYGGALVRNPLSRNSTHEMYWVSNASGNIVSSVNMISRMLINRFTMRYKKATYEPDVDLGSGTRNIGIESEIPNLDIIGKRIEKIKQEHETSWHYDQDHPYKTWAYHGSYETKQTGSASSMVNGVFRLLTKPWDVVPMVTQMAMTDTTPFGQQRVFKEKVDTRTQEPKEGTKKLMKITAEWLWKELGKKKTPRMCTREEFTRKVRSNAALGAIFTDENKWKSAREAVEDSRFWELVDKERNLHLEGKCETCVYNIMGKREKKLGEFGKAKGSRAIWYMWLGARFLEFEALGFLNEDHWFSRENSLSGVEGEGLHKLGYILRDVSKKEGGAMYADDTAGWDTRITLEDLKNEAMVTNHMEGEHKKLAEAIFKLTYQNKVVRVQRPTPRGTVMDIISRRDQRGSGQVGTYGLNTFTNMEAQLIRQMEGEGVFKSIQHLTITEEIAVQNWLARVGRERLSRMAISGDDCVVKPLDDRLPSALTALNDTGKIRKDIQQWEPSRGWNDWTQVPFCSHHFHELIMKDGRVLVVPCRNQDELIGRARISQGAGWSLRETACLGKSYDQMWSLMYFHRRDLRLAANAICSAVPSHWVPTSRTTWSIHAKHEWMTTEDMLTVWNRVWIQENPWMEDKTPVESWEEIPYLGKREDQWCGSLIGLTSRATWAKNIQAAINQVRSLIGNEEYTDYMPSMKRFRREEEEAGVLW

What is called IC50 is the concentration needed to halve the response being measured. In general, CC50 refers to the concentration at which the toxic effect on the cells reaches its halfway point. Regarding `Cc1ccc2c(c1)c(=O)c1c3n2CCN(C(=O)CCl)C3CC1` (configuration not stated), the IC50 at Genome polyprotein is > 100 µM (active); in assay [1], 14.2 µM (active); at Bcl-2-like protein 10 it was 11.4 µM (active); on Estrogen receptor beta [2], 8.75 µM (active); in assay [3], 23.9 µM (active); at Caspase-3 it was 14 µM (active). Moreover, the IC50 in assay [5] was > 100 µM (active); on Estrogen receptor beta [6] it was 0.348 µM (not active); in [7] it was 8.69 µM (active). Besides, the cytotoxic concentration (CC50) in the assay with Vero is 13.1 µM (active); in [4], 10.9 µM (active).

For orientation: EC50 means the concentration giving half of the maximal effect. Regarding `CS(=O)(=O)c1nc(-c2cccs2)cc(C(F)(F)F)n1`, the concentration for a half-maximal effect (EC50) in assay [8] is > 38 µM (not active); in assay [11], 2.57 µM (active); in assay [12] it was 2.73 µM (active); in assay [13] it was 2.66 µM (active); in assay [14], 4.62 µM (inconclusive); in [15], 3.19 µM (active). The values for the IC50 in assay [9] and in assay [10] were 22.9 µM (not active) and 0.989 µM (active), respectively.

With `O=C(CN(Cc1ccc2c(c1)OCO2)C(=O)CSc1nc2ccccc2o1)NC1CCCCC1`, the 50% inhibitory concentration (IC50) in assay [16] is 8.58 µM (active); in [17] it was 13.7 µM (not active).

Consider `CCCn1nc2ccccc2c1P(=O)(N1CCOCC1)N1CCOCC1`, for which the half-inhibitory concentration (IC50) in assay [18] and in assay [19] was > 50 µM (not active) each time.

As for `Cc1ccc(-c2nnc(S)n2/N=C/C=C/c2ccccc2[N+](=O)[O-])cc1`, the IC50 at Bcl-2-like protein 10 was > 100 µM (inactive). The EC50 at Estrogen receptor is 6.52 µM (active).

Regarding `Cc1noc(C)c1C(=O)OCC(=O)c1cc(C)n(Cc2ccccc2)c1C`, the EC50 in assay [20] is on record as > 30 µM (not active).

Take `C=CCN(CC=C)C(=S)NC(=O)Cc1cccc2ccccc12`: in assay [21], the 50% inhibitory concentration (IC50) was 31.6 µM (active).
